This is an account of results in patent publication US8119633B2, “Substituted sulfonamide compounds” (Gruenenthal GmbH, priority 2007, dated 2012).

Molecules are shown by their SMILES. Where two headings read alike, the source gives them in different places.

The target of assay [1] is T1, human bradykinin receptor 1 (B1R) (Homo sapiens, UniProt P46663).
T1 construct: expressed in transfected cells; host or cells: CHO K1 cells
T1 sequence (P46663 1-353): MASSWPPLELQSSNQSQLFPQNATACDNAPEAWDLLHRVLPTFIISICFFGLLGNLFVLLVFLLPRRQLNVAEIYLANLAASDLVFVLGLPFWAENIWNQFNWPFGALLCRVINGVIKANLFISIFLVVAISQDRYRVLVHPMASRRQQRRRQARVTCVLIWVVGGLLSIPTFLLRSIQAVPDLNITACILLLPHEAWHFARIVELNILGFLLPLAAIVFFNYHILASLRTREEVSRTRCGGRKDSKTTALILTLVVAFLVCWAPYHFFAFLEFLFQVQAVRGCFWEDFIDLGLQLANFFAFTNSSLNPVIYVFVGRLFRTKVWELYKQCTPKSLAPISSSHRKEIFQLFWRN
In words: Functional study on the bradykinin receptor 1 (B1R), human: FLIPR Ca2+ influx assay. The format is cell-based. The text has this: Functional Study on the Human Bradykinin Receptor 1 (B1R)
(§1) The agonistic or antagonistic action of substances can be determined on the bradykinin receptor 1 (B1R) of the species human and rat using the following assay. According to this assay, the Ca^2+ influx through the channel is quantified with the aid of a Ca^2+-sensitive dye (Fluo-4 type, Molecular Probes Europe BV, Leiden, Netherlands) using a Fluorescent Imaging Plate Reader (FLIPR, Molecular Devices, Sunnyvale, USA).
(§2) Chinese hamster ovary cells (CHO K1 cells) which have been stably transfected with the human B1R gene (hB1R cells) or with the B1R gene of the rat (rB1R cells) are used. For functional studies, the cells are plated out on black 96-well plates having a clear base (BD Biosciences, Heidelberg, Germany or Greiner, Frickenhausen, Germany) in a density of 20,000-35,000 cells/well. The cells are incubated overnight at 37° C. and with 5% CO2 in culture medium (hB1R cells: Nutrient Mixture Ham's F12, Gibco Invitrogen GmbH, Karlsruhe, Germany or DMEM, Sigma-Aldrich, Taufkirchen, Germany; rB1R cells: D-MEM/F12, Gibco Invitrogen GmbH, Karlsruhe, Germany), with 10 vol. % FBS (fetal bovine serum, Gibco Invitrogen GmbH, Karlsruhe, Germany or PAN Biotech GmbH, Aidenbach, Germany).
(§3) On the following day, the cells are loaded for 60 minutes at 37° C. with 2.13 μM Fluo-4 (Molecular Probes Europe BV, Leiden, Netherlands) in HBSS buffer (Hank's buffered saline solution, Gibco Invitrogen GmbH, Karlsruhe, Germany) with 2.5 mM probenecid (Sigma-Aldrich, Taufkirchen, Germany) and 10 mM HEPES (Sigma-Aldrich, Taufkirchen, Germany). The plates are then washed twice with HBSS buffer, and HBSS buffer additionally containing 0.1% BSA (bovine serum albumin; Sigma-Aldrich, Taufkirchen, Germany), 5.6 mM glucose and 0.05% gelatin (Merck KGaA, Darmstadt, Germany) is added to the plates. After incubation for a further 20 minutes at room temperature, the plates are inserted into the FLIPR for Ca^2+ measurement. Alternatively, washing is carried out with buffer A (15 mM HEPES, 80 mM NaCl, 5 mM KCl, 1.2 mM CaCl2, 0.7 mM MgSO4, 2 g/l glucose, 2.5 mM probenecid) followed by loading with buffer A with added 2.5 μM Fluo-4 and 0.025% Pluronic F127 (Sigma-Aldrich, Taufkirchen, Germany). The cells are then washed twice with buffer A and incubated for 30 minutes at room temperature with buffer A additionally containing 0.05% BSA and 0.05% gelatin and are then inserted into the FLIPR for Ca^2+ measurement.
(§4) The Ca^2+-dependent fluorescence is measured before and after the addition of substances (λex=488 nm, λem=540 nm). Quantification is carried out by measuring the highest fluorescence intensity (FC, fluorescence counts) over time.
(§5) The FLIPR protocol consists of two substance additions. Test substances (10 μM) are first pipetted onto the cells and the Ca^2+ influx is compared with the control (hB1R: Lys-Des-Arg^9-bradykinin>=0.5 nM; rB1R: Des-Arg^9-bradykinin 10 μM). This gives the activation in %, based on the Ca^2+ signal after addition of Lys-Des-Arg^9-bradykinin (>=0.5 nM) or Des-Arg^9-bradykinin (10 μM).
(§6) After 10-20 minutes' incubation, Lys-Des-Arg^9-bradykinin (hB1R) or Des-Arg^9-bradykinin (rB1R) is applied in the concentration of the EC80, and the influx of Ca^2+ is likewise determined.
(§7) Antagonists lead to suppression of the Ca^2+ influx. The % inhibition compared with the maximum achievable inhibition is calculated.
(§8) In order to determine the IC50 value, the substances are added in various concentrations. Duplicate or triplicate determinations (n=2 or n=3) are carried out, and these are repeated in at least one further independent experiment (N>=2).

The target of assay [2] is T2, bradykinin receptor 1 (B1R) of the rat (Rattus norvegicus, UniProt P97583).
T2 construct: expressed in transfected cells; host or cells: CHO K1 cells
T2 sequence (P97583 1-337): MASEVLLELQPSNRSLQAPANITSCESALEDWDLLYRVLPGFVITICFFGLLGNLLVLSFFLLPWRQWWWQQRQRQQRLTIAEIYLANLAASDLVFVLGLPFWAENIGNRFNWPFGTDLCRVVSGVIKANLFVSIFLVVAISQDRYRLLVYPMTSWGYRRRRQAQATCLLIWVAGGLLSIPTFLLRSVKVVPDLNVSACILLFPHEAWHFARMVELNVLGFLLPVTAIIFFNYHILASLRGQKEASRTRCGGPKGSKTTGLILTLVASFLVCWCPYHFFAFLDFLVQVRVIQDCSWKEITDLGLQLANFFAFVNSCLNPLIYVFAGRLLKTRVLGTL
In words: Functional study on the bradykinin receptor 1 (B1R), rat: FLIPR Ca2+ influx assay. The format is cell-based.
Text: as §1, §2, §3, §4, §5, §6, §7, §8

Where [3] appears, read: test substance 10 μM, CHO K1 cells transfected with human B1R, Lys-Des-Arg9-bradykinin at EC80, Ca2+ influx (Fluo-4, FLIPR), read-out: B1R antagonism, human [10 μM] % inhibition.
Where [4] appears, read: test substance 10 μM, CHO K1 cells transfected with rat B1R, Des-Arg9-bradykinin at EC80, Ca2+ influx (Fluo-4, FLIPR), read-out: B1R antagonism, rat [10 μM] % inhibition.

One may read the inhibition as the drop in the measured response relative to a control, in per cent. As to `CN(C)C(c1ccccc1)C1CCC(NC(=O)c2ccccc2N(C)S(=O)(=O)c2ccc(Cl)c(Cl)c2)CC1` (stereo not shown) [Example 11, 2-[(3,4-dichloro-benzenesulfonyl)-methyl-amino]-N-[4-(dimethylamino-phenylmethyl)-cyclohexyl]-benzamide], the inhibition at 10 µM in assay [1] (CHO-K1, read-out: B1R antagonism, human [10 μM] % inhibition) came out at 85.5%; in assay [2] (CHO-K1, read-out: B1R antagonism, rat [10 μM] % inhibition), 107%.
With `COc1ccc(S(=O)(=O)N2CCc3ccccc3C2CC(=O)NC2CCC(C(c3cccc(F)c3)N(C)C)CC2)cc1` (stereo not shown) [Example 13, N-{4-[dimethylamino-(3-fluoro-phenyl)-methyl]-cyclohexyl}-2-[2-(4-methoxybenzenesulfonyl)-1,2,3,4-tetrahydro-isoquinolin-1-yl]-acetamide], the inhibition at 10 µM in assay [1] (setting [3]) was 64.4%; in assay [2] (setting [4]), 76%.
With `COc1ccc(S(=O)(=O)N2CCc3ccccc3C2CC(=O)NC2CCC(C(c3ccc(F)cc3)N(C)C)CC2)cc1` (stereo not shown) [Example 14, N-{4-[dimethylamino-(4-fluoro-phenyl)-methyl]-cyclohexyl}-2-[2-(4-methoxybenzenesulfonyl)-1,2,3,4-tetrahydro-isoquinolin-1-yl]-acetamide], the inhibition at 10 µM is 86.9% in assay [1] (setting [3]) and 75% in assay [2] (setting [4]).
In the same order, the values of `COc1ccc(S(=O)(=O)N2CCc3ccccc3C2CC(=O)NC2CCC(C(c3cccs3)N(C)C)CC2)cc1` (stereo not shown) [Example 15, N-[4-(dimethylamino-thiophen-2-yl-methyl)-cyclohexyl]-2-[2-(4-methoxybenzenesulfonyl)-1,2,3,4-tetrahydro-isoquinolin-1-yl]-acetamide] are 44.6% and 57%.
Take `COc1ccc(S(=O)(=O)N2CCc3ccccc3C2CC(=O)NCC2CCC(C(c3cccc(F)c3)N(C)C)CC2)cc1` (stereo not shown) [Example 16, N-{4-[dimethylamino-(3-fluoro-phenyl)-methyl]-cyclohexylmethyl}-2-[2-(4-methoxy-benzenesulfonyl)-1,2,3,4-tetrahydro-isoquinolin-1-yl]-acetamide]: the inhibition at 10 µM in assay [1] (setting [3]) is 35.5%; in assay [2] (setting [4]), 57%.
In the same order, the values of `COc1ccc(S(=O)(=O)N2CCc3ccccc3C2CC(=O)NCC2CCC(C(c3ccccc3)N(C)C)CC2)cc1` (stereo not shown) [Example 17, N-[4-(dimethylamino-phenyl-methyl)-cyclohexylmethyl]-2-[2-(4-methoxybenzenesulfonyl)-1,2,3,4-tetrahydro-isoquinolin-1-yl]-acetamide] are 36.6% and 41%.
As for `COc1ccc(S(=O)(=O)N2CCc3ccccc3C2CC(=O)NCC2CCC(C(CCc3ccccc3)N(C)C)CC2)cc1` (stereo not shown) [Example 18, N-[4-(1-dimethylamino-3-phenyl-propyl)-cyclohexylmethyl]-2-[2-(4-methoxybenzenesulfonyl)-1,2,3,4-tetrahydro-isoquinolin-1-yl]-acetamide], the inhibition at 10 µM in assay [1] (setting [3]) came to 58.8%; in assay [2] (setting [4]) it was 73%.
For `COc1ccc(S(=O)(=O)N2CCc3ccccc3C2CC(=O)NCC2CCC(C(c3ccc(F)cc3)N(C)C)CC2)cc1` (stereo not shown) [Example 19, N-{4-[dimethylamino-(4-fluoro-phenyl)-methyl]-cyclohexylmethyl}-2-[2-(4-methoxy-benzenesulfonyl)-1,2,3,4-tetrahydro-isoquinolin-1-yl]-acetamide], the inhibition at 10 µM in assay [1] (setting [3]) came to 42.7%; in assay [2] (setting [4]), 41%.
For `COc1ccc(S(=O)(=O)N2CCc3ccccc3C2CC(=O)NCC2CCC(C(c3ccc(Cl)cc3)N(C)C)CC2)cc1` (stereo not shown) [Example 20, N-{4-[(4-chloro-phenyl)-dimethylamino-methyl]-cyclohexylmethyl}-2-[2-(4-methoxy-benzenesulfonyl)-1,2,3,4-tetrahydro-isoquinolin-1-yl]-acetamide] the same measures were 38.8% and 28%.
Take `COc1ccc(S(=O)(=O)N2CCc3ccccc3C2CC(=O)NCC2CCC(C(c3cccs3)N(C)C)CC2)cc1` (stereo not shown) [Example 21, N-[4-(dimethylamino-thiophen-2-yl-methyl)-cyclohexylmethyl]-2-[2-(4-methoxybenzenesulfonyl)-1,2,3,4-tetrahydro-isoquinolin-1-yl]-acetamide]: the inhibition at 10 µM in assay [1] (setting [3]) was 52.9%; in assay [2] (setting [4]), 41%.
For `COc1ccc(S(=O)(=O)N2CCc3ccccc3C2CC(=O)NCCC2CCC(C(c3ccc(Cl)cc3)N(C)C)CC2)cc1` (stereo not shown) [Example 22, N-(2-{4-[(4-chloro-phenyl)-dimethylamino-methyl]-cyclohexyl}-ethyl)-2-[2-(4-methoxy-benzenesulfonyl)-1,2,3,4-tetrahydro-isoquinolin-1-yl]-acetamide] the same measures were 70.3% and 34%.
For `COc1ccc(S(=O)(=O)N2CCc3ccccc3C2CC(=O)NCCC2CCC(C(c3cccc(F)c3)N(C)C)CC2)cc1` (stereo not shown) [Example 23, N-(2-{4-[dimethylamino-(3-fluoro-phenyl)-methyl]-cyclohexyl}-ethyl)-2-[2-(4-methoxy-benzenesulfonyl)-1,2,3,4-tetrahydro-isoquinolin-1-yl]-acetamide] the same measures were 64% and 57%.
Consider `COc1ccc(S(=O)(=O)N2CCc3ccccc3C2CC(=O)NCCC2CCC(C(c3ccc(F)cc3)N(C)C)CC2)cc1` (stereo not shown) [Example 24, N-(2-{4-[dimethylamino-(4-fluoro-phenyl)-methyl]-cyclohexyl}-ethyl)-2-[2-(4-methoxy-benzenesulfonyl)-1,2,3,4-tetrahydro-isoquinolin-1-yl]-acetamide], for which the inhibition at 10 µM in assay [1] (setting [3]) stood at 82.2%; in assay [2] (setting [4]), 67%.
For `COc1ccc(S(=O)(=O)N2CCc3ccccc3C2CC(=O)NCCC2CCC(C(c3cccs3)N(C)C)CC2)cc1` (stereo not shown) [Example 25, N-{2-[4-(dimethylamino-thiophen-2-yl-methyl)-cyclohexyl]-ethyl}-2-[2-(4-methoxy-benzenesulfonyl)-1,2,3,4-tetrahydro-isoquinolin-1-yl]-acetamide] the same measures were 79.5% and 68%.
